This passage reports EC50 results from patent US20130204033A1, “ANTIPROLIFERATIVE COMPOUNDS, CONJUGATES THEREOF, METHODS THEREFOR, AND USES THEREOF” (Medarex, Inc., priority 2009, published 2013).

Assay type in all cases: cell-based, human
For assay [1], the system named is Hep3B. The experiment in a line: 3H thymidine proliferation assay, Hep3B. Particulars: 3H thymidine method, 72 h incubation; read-out: EC50, Hep3B. The gist of the method:
(§1)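 Tumour cells were plated at 1.0×10^4 per well and, after 3 h, treated with threefold serial dilutions of compound or conjugate. Total incubation was 72 h, with a 1.0 μCi ^3H-thymidine pulse over the last 24 h. Counts gave the 50% inhibition concentration (EC50).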

Assay [2] relates to U-87 MG. The assay is described as follows: 3H thymidine proliferation assay, U-87 MG. Particulars: 3H thymidine method, 72 h incubation; read-out: EC50, U-87 MG. The gist of the method: as §1
Assay [3] deals with A549. The experiment in a line: 3H thymidine proliferation assay, A549. Particulars: 3H thymidine method, 72 h incubation; read-out: EC50, A549. A digest of the protocol: as §1
The test system of assay [4] is SKOV3. The assay is described as follows: 3H thymidine proliferation assay, SKOV3. The conditions noted are these: 3H thymidine method, 72 h incubation; read-out: EC50, SKOV3. A digest of the protocol:
as §1

Assay [5] concerns UO-31. The experiment in a line: 3H thymidine proliferation assay, UO-31. Particulars: 3H thymidine method, 72 h incubation; read-out: EC50, UO-31. A digest of the protocol: as §1
For assay [6], the system named is DMS53. The assay is described as follows: 3H thymidine proliferation assay, DMS53. The conditions noted are these: 3H thymidine method, 72 h incubation; read-out: EC50, DMS53. A digest of the protocol:
as §1

Assay [7] has as its system SK-BR3. The experiment in a line: 3H thymidine proliferation assay, SK-BR3. Particulars: 3H thymidine method, 72 h incubation. The gist of the method:
as §1

Assay [8] concerns OVCAR3. The assay is described as follows: 3H thymidine proliferation assay, OVCAR3. Particulars: 3H thymidine method, 72 h incubation; read-out: EC50, OVCAR3. The gist of the method:
as §1

The test system of assay [9] is HL-60. The experiment in a line: 3H thymidine proliferation assay, HL-60. The conditions noted are these: 3H thymidine method, 72 h incubation; read-out: EC50, HL-60. The gist of the method: as §1
Assay [10] has as its system MDA-MB-231. The assay is described as follows: ATP luminescence proliferation assay, MDA-MB-231. Particulars: ATP luminescence, MDA-MB-231, 72 h incubation; read-out: EC50 MDA-MB-231 (72 h). The method, then: (§2) This example generally describes the procedures used to assay the antiproliferative activity of compounds of this invention or their conjugates. Human tumor cell lines were obtained from the American Type Culture Collection (ATCC), P.O. Box 1549, Manassas, Va. 20108, USA, and cultured according to instruction from the ATCC. Cells were seeded at 1.0×10^3 or 1.0×10^4 cells/well in 96-well plates for 3 h for ATP assays or ^3H thymidine assays, respectively. 1:3 serial dilutions of free (unconjugated) compounds or their conjugates were added to the wells. Plates were allowed to incubate for 24 to 72 h. The ^3H thymidine plates were pulsed with 1.0 μCi of ^3H-thymidine per well for the last 24 hours of the total incubation period, harvested, and read on a Top Count Scintillation Counter (Packard Instruments, Meriden, Conn.). ATP levels in the ATP plates were measured using the […]-GLO® Luminescent Cell Viability kit following the manufacturer's manual and read on a GLOMAX® 20/20 luminometer (both from Promega, Madison, Wis., USA). The EC50 values—the concentration at which an agent inhibits or reduces cell proliferation by 50% —were determined using PRISM™ software, version 4.0 (GraphPad Software, La Jolla, Calif., USA).
(§3) Using the ^3H thymidine or the ATP luminescence assay, or both, the activities of compounds of this invention were assayed against the following cancer cell lines: HCT-15 (colorectal cancer, multi-drug resistant (MDR)); Hep3B (liver cancer); LNCaP (prostate cancer, androgen receptor positive (AR^+)); MDA-MB-231 (breast cancer, estrogen receptor, progesterone receptor, and Her2 negative (triple negative)); A2058 (melanoma); U-87 MG (glioblastoma); NCI-H460 (NSCLC); A549 (NSCLC); HPAC (pancreatic cancer, primary); PC3 (prostate cancer, AR); BT474 (breast cancer, Her2 highly positive (Her2hi)); SKOV3 (ovarian cancer, Her2hi); 786-O (renal cancer); UO-31 (renal cancer, MDR); NCI-H740 (SCLC); DMS53 (SCLC); SK-BR3 (breast cancer, Her2hi); ZR-75 (breast cancer, estrogen receptor positive); OVCAR3 (ovarian cancer); HL-60 (APL); OVCAR8/Adr (ovarian cancer, MDR); CEM-Cl (ALL); Nomo-1 (AML); RPMI-8226 (MM)); Raji (lymphoma); SW-480 (colorectal cancer, metastatic); SW-620 (colorectal cancer); and H226 (lung cancer). (Not all compounds were assayed against all cell lines.)
(§4) Table 3 provides the data for the ATP luminescence proliferation assays, with an incubation period of 48, 72, or 96 h, as noted.

Assay [11] deals with A2058. The assay is described as follows: ATP luminescence proliferation assay, A2058. Particulars: ATP luminescence, A2058, 72 h incubation; read-out: EC50 A2058 (72 h). The method, then: as §2, §3, §4
For assay [12], the system named is NCI-H460. The assay is described as follows: ATP luminescence proliferation assay, NCI-H460. The conditions noted are these: ATP luminescence, NCI-H460, 72 h incubation; read-out: EC50 NCI-H460 (72 h). The method, then: as §2, §3, §4
For assay [13], the system named is BT474. The assay is described as follows: ATP luminescence proliferation assay, BT474. Particulars: ATP luminescence, BT474, 48 h incubation; read-out: EC50 BT474 (48 h). The method, then: as §2, §3, §4
The subject of assay [14] is 786-O. The assay is described as follows: ATP luminescence proliferation assay, 786-O. Particulars: ATP luminescence, 786-O, 72 h incubation; read-out: EC50 786-O (72 h). The gist of the method:
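Read-out: luminescent ATP cell viability after 48, 72 or 96 h incubation, as noted, with 1:3 serial dilutions of unconjugated compounds or their conjugates. Plating was 1.0×10^3 cells/well, 3 h before dosing. EC50 = concentration giving 50% inhibition of proliferation.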

Assay [15] concerns DMS53. The assay is described as follows: ATP luminescence proliferation assay, DMS53. Particulars: ATP luminescence, DMS53, 72 h incubation; read-out: EC50 DMS53 (72 h). The method, then:
as §2, §3, §4

Assay [16] relates to ZR-75. The experiment in a line: ATP luminescence proliferation assay, ZR-75. Particulars: ATP luminescence, ZR-75, 48 h incubation; read-out: EC50 ZR-75 (48 h). The method, then:
as §2, §3, §4

For assay [17], the system named is OVCAR3. The assay is described as follows: ATP luminescence proliferation assay, OVCAR3. Particulars: ATP luminescence, OVCAR3, 48 h incubation; read-out: EC50 OVCAR3 (48 h). The gist of the method: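 Human tumor lines, cultured per supplier instructions, are plated at 1.0×10^3 cells/well and allowed 3 h before 1:3 serially diluted test agents are added. Viability is read as ATP luminescence after 48, 72 or 96 h.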

For assay [18], the system named is SW-620. The assay is described as follows: ATP luminescence proliferation assay, SW-620. The conditions noted are these: ATP luminescence, SW-620, 96 h incubation; read-out: EC50 SW-620 (96 h). The method, then: as §2, §3, §4

What is called EC50 is the concentration giving half of the maximal effect.

As to `CC[C@H](C)[C@H](NC(=O)[C@H]1CCCCN1C)C(=O)N(COC(=O)CC(C)C)[C@H](C[C@@H](O)c1nc(C(=O)N[C@@H](Cc2ccccc2)C(=O)OC)cs1)C(C)C` [Compound 28], the EC50 is 24 nM in assay [1]; more than 100 nM in assay [2]; more than 100 nM in assay [3]; 9.9 nM in assay [4]; more than 100 nM in assay [5]; more than 100 nM in assay [6]. For the same molecule, the EC50 in [7] was more than 100 nM; in assay [8], 3.1 nM; in [9] it was 7.7 nM; in assay [10], 16 nM; in [11], 20 nM; in assay [12], 35 nM. Also, the EC50 was 12 nM in [13]; 29 nM in [14]; 58 nM in assay [15]; 16 nM in [16]; 14 nM in assay [17]; 21 nM in [18].
In the case of `CCC[C@H](NC(=O)[C@H](Cc1ccccc1)NC(=O)c1csc([C@@H](C[C@H](C(C)C)N(C)C(=O)[C@@H](NC(=O)[C@H]2CCCCN2C)[C@@H](C)CC)OC)n1)C(=O)OC` [Compound 19], the EC50 in assay [1] was 52 nM; in assay [2], more than 100 nM; in assay [3], more than 100 nM; in [4], more than 100 nM; in assay [5] it was more than 100 nM; in assay [6], more than 100 nM. The EC50 was more than 100 nM in [7]; 53 nM in [8]; 37 nM in [9]; 32 nM in [10]; 26 nM in assay [11]; 43 nM in assay [12]. In addition, the EC50 in assay [13] is 8.8 nM; in assay [14] it was 40 nM; in assay [15], 87 nM; in [16], 20 nM; in assay [17], 25 nM; in assay [18], 14 nM.
